# Test results from patent publication US12233057B2, “Small molecules for inhibiting chemokine activity and/or cancer cells growth” (AlonBio Ltd., priority 2015, dated 2025).
# Experiments:
# MIP3a = MIP3a (Homo sapiens, UniProt P78556); test: Migration assay: CD4+ T-cells toward MIP3a (Transwell); type: cell-based; settings: BKT300 at 78% purity, 50 μg/ml
# Description: (§1) 600 μl of RPMI medium was added to the lower chambers of Transwell® transmigration plates, supplemented with 2 μg/ml of MIP3a, 100 ng/ml of SDF-1 or 10 ng/ml of MCP-1. The tested small molecule was added to the lower chambers at the indicated concentration, except in control samples. The MIP3a, SDF-1 or MCP-1 was incubated with the small molecule for 30 minutes at room temperature before the initiation of the migration assay. Following 30 minutes of incubation 2×10^5 immune cells were added to the upper chambers of the transmigration plates in a total volume of 100 μl. Cells which migrated within 3 hours to the bottom chamber of the Transwell® plates were counted using a FACScalibur™ flow cytometer.
# To evaluate migration toward MIP3a, peripheral blood mononuclear cells (PBMCs) were isolated from heparinized venous blood by centrifugation over Ficoll Histopaque® 1077. CD4+ T cells were further isolated with RosetteSep™ human CD4+ T-cell Enrichment cocktail (StemCell Technologies Inc.), according to the manufacturer's instructions.
# The 18 compounds uncovered by the screening assay were further tested for their ability, at final concentrations of 10 and 50 μg/ml, to inhibit the migration of human CD4+ T-cells toward MIP3a; and to inhibit the migration of immune cells in response to MCP-1 and SDF-1, using the procedures described in the Materials and Methods section hereinabove.
# MCP-1 = MCP-1 (Homo sapiens, UniProt P13500); test: Migration assay: THP-1 cells towards MCP-1 (Transwell); type: cell-based; settings: BKT300 at 78% purity
# Description: as §1
# To evaluate migration towards MCP-1, JTHP-1 cells were re-suspended in RPMI medium containing 1% fetal calf serum (FCS).
# [1] = system: MV4-11 human acute myeloid leukemia cells; test: Cancer cell viability assay, propidium iodide staining (FACS); type: cell-based
# Description: The cancer cells were incubated in cell medium with 1% fetal calf serum (FCS) at a concentration of 2×10^5 cells/well at a final volume of 250 μl in 96-well plate. The tested small molecule was added to the cells at the indicated concentrations. The cells were incubated for 24 hours and the number of dead and viable cells was then evaluated by fluorescence-activated cell sorting (FACS), using propidium iodide (PI) staining. The IC50 of the small molecule-induced cell death was determined using GraphPad Prism software.
# In order to assess the effect of BKT300 on cancer cells viability, the in vitro effect on MV4-11 human acute myeloid leukemia cells was evaluated. The MV4-11 cancer cells were incubated in RPMI cell medium with 1% fetal calf serum (FCS) at a concentration of 2×10^5 cells/well at a final volume of 250 μl in 96-well plate. BKT300 was added to the cells at the indicated concentrations. The cells were incubated for 24 hours and the number of dead and viable cells was then evaluated by fluorescence-activated cell sorting (FACS), using propidium iodide (PI) staining. The IC50 of […] cell death was determined using GraphPad Prism software.
# CDC7/DBF4 = CDC7/DBF4 (Homo sapiens, UniProt O00311); test: LanthaScreen europium kinase binding assay; settings: BKT300 at 78% purity
# Description: (§2) In order to further characterize the effect of BKT300 on cell signaling, kinase profiling of BKT300 (at 78% purity) was performed (by the Life Technologies SelectScreen® Biochemical Profiling Lab) using a LanthaScreen® europium kinase binding assay to screen 440 kinases.
# (§3) The principle of the LanthaScreen® assay is depicted in FIG. 13. Binding of an Alexa Fluor® conjugate or “tracer” to a kinase is detected by addition of a europium (Eu)-labeled anti-tag antibody. Binding of the tracer and antibody to a kinase results in a high degree of FRET, whereas displacement of the tracer with a kinase inhibitor results in a loss of FRET. The kinase tracers are based on ATP-competitive kinase inhibitors, making them suitable for detection of any compounds that bind to the ATP site. Inhibitors that bind the ATP site include both Type I kinase inhibitors, which bind solely to the ATP site, and Type II inhibitors (e.g., imatinib, sorafenib, BIRB-796), which bind to both the ATP site and a second site often referred to as the allosteric site.
# CDK1/cyclin A2 = CDK1/cyclin A2 (Homo sapiens, UniProt P06493); test: LanthaScreen europium kinase binding assay; settings: BKT300 at 78% purity
# Description: as §2, §3
# CDK8/cyclin C = CDK8/cyclin C (Homo sapiens, UniProt P49336); test: LanthaScreen europium kinase binding assay; settings: BKT300 at 78% purity
# Description: as §2, §3
# GRK4 = GRK4 (Homo sapiens, UniProt P32298); test: LanthaScreen europium kinase binding assay; settings: BKT300 at 78% purity
# Description: as §2, §3
# GRK5 = GRK5 (Homo sapiens, UniProt P34947); test: LanthaScreen europium kinase binding assay; settings: BKT300 at 78% purity
# Description: as §2, §3
# ICK = ICK (Homo sapiens, UniProt Q9UPZ9); test: LanthaScreen europium kinase binding assay; settings: BKT300 at 78% purity
# Description: as §2, §3
# KIT D820E = KIT D820E (Homo sapiens, UniProt P10721, D820E); test: LanthaScreen europium kinase binding assay; settings: BKT300 at 78% purity
# Description: as §2, §3
# KIT T670E = KIT T670E (Homo sapiens, UniProt P10721, T670E); test: LanthaScreen europium kinase binding assay; settings: BKT300 at 78% purity
# Description: as §2, §3
# MAP4K1 (HPK1) = MAP4K1 (HPK1) (Homo sapiens, UniProt Q92918); test: LanthaScreen europium kinase binding assay; settings: BKT300 at 78% purity
# Description: as §2, §3
# MAP4K4 (HGK) = MAP4K4 (HGK) (Homo sapiens, UniProt O95819); test: LanthaScreen europium kinase binding assay; settings: BKT300 at 78% purity
# Description: as §2, §3
# MELK = MELK (Homo sapiens, UniProt Q14680); test: LanthaScreen europium kinase binding assay
# Description: as §2, §3
# NUAK2 = NUAK2 (Homo sapiens, UniProt Q9H093); test: LanthaScreen europium kinase binding assay; settings: BKT300 at 78% purity
# Description: as §2, §3
# PAK7 (KIAA1264) = PAK7 (KIAA1264) (Homo sapiens, UniProt Q9P286); test: LanthaScreen europium kinase binding assay; settings: BKT300 at 78% purity
# Description: as §2, §3
# TGFBR2 = TGFBR2 (Homo sapiens, UniProt P37173); test: LanthaScreen europium kinase binding assay; settings: BKT300 at 78% purity
# Description: as §2, §3
# TTK = TTK (Homo sapiens, UniProt P33981); test: LanthaScreen europium kinase binding assay; settings: BKT300 at 78% purity
# Description: as §2, §3
# MCP-1, sequence (P13500 24-99): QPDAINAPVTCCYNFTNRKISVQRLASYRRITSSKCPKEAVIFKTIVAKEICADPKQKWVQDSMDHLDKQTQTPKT
# MELK, sequence (Q14680 whole entry): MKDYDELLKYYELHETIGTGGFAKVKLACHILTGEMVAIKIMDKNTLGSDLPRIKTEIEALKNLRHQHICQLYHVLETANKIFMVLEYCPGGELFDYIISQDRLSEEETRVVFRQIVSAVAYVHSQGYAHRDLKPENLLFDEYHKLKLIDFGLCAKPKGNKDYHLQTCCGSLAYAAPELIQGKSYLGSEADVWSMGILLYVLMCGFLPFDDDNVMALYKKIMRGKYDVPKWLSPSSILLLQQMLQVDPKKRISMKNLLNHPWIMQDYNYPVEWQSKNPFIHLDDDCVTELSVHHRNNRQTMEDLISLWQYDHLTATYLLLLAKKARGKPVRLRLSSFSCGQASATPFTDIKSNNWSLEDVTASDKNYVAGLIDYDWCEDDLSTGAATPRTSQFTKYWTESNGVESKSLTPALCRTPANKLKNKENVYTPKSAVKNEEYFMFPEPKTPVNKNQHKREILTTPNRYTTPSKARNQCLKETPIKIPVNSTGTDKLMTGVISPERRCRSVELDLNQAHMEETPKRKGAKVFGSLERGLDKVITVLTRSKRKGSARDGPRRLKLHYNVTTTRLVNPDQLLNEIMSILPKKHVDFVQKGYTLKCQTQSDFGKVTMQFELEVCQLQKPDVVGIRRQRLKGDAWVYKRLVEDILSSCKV
# TTK, sequence (P33981 whole entry): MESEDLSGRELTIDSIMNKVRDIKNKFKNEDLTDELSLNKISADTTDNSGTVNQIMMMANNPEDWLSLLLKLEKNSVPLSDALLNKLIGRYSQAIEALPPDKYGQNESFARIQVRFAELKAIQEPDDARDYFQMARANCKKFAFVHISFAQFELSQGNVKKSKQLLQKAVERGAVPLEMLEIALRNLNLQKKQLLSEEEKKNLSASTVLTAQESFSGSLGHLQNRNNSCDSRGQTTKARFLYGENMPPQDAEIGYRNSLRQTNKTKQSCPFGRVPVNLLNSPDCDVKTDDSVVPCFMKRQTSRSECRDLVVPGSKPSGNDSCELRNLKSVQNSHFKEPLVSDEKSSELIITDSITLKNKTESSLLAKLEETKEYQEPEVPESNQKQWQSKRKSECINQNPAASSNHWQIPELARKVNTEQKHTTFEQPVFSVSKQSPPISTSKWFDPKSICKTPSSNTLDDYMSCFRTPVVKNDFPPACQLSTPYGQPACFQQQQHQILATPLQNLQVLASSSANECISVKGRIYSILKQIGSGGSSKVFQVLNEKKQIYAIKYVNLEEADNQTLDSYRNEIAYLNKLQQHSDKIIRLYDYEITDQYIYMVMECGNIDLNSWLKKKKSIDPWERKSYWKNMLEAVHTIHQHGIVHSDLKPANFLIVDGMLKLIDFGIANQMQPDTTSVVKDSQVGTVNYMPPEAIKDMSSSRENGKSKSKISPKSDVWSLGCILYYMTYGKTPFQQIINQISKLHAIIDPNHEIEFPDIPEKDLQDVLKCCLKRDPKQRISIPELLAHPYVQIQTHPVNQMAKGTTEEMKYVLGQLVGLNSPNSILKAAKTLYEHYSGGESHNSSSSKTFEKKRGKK
# GRK5, sequence (P34947 whole entry): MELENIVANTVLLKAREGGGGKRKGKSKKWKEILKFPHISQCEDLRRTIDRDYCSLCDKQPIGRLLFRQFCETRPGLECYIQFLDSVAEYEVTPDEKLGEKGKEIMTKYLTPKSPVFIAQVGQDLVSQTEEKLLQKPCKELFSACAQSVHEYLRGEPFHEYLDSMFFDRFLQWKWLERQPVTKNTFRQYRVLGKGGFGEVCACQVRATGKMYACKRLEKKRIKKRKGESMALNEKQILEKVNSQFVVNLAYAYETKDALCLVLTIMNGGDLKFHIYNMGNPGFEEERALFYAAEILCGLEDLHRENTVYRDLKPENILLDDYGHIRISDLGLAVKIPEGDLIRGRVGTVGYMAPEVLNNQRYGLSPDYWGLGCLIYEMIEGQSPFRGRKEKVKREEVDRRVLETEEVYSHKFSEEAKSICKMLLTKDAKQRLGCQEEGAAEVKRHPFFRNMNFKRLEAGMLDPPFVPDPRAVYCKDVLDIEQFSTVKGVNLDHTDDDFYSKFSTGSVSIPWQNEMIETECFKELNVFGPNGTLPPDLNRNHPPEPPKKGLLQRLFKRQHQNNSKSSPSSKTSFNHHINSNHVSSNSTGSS
# KIT D820E, sequence (P10721 26-976 D820E): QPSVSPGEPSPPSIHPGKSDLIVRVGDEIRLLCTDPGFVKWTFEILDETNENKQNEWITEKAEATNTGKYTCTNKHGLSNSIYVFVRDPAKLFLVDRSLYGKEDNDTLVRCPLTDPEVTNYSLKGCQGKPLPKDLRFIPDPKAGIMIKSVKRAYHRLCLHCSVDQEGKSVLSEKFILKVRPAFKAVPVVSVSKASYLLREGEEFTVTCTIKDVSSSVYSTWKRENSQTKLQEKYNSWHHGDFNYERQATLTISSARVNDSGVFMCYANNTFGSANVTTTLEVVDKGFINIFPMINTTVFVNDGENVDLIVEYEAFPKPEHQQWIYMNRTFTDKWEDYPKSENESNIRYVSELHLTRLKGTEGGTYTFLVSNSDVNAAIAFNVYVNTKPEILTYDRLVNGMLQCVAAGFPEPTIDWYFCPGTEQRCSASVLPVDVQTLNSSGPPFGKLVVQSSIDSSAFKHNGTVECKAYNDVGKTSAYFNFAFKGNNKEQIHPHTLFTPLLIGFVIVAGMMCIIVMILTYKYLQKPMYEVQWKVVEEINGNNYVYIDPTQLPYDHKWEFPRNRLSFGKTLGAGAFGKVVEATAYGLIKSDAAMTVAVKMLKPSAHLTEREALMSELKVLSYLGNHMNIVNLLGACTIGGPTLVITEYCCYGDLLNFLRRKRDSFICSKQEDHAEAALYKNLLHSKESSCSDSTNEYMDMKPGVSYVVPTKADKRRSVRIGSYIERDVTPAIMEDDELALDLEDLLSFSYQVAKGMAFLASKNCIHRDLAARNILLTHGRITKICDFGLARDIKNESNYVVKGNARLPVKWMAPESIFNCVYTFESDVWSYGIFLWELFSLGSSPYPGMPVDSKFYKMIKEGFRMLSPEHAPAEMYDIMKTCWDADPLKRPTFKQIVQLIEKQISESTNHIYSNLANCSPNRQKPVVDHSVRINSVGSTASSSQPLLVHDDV
# GRK4, sequence (P32298 whole entry): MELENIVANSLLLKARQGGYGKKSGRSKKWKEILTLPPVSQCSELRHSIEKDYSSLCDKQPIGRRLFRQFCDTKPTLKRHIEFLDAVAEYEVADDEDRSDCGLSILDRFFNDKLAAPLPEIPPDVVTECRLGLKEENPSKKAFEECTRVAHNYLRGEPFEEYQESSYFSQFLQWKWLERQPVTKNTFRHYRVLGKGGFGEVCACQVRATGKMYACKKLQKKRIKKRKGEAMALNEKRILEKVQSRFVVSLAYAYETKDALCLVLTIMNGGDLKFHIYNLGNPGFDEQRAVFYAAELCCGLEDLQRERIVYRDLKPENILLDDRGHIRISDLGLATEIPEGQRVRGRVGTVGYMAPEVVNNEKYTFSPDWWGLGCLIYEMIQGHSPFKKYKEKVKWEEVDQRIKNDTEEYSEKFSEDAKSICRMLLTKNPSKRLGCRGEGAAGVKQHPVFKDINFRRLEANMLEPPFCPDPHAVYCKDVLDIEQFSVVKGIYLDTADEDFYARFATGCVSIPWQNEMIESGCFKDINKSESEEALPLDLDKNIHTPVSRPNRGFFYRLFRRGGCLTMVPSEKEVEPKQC
# CDK8/cyclin C, sequence (P49336 whole entry): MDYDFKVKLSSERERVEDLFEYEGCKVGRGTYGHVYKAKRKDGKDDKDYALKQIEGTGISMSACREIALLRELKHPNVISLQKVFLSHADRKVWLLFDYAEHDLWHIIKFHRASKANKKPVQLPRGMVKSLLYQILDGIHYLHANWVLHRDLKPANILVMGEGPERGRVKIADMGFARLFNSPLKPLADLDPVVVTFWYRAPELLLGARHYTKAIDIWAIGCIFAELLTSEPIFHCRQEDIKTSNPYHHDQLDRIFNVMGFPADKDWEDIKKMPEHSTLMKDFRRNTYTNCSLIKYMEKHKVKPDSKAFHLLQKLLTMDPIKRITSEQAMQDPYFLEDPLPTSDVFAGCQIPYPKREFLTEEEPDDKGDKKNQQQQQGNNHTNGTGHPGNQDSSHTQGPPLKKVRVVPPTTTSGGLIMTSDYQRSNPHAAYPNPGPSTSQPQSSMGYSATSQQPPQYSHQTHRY
# CDK8/cyclin C, sequence (P24863 whole entry partner): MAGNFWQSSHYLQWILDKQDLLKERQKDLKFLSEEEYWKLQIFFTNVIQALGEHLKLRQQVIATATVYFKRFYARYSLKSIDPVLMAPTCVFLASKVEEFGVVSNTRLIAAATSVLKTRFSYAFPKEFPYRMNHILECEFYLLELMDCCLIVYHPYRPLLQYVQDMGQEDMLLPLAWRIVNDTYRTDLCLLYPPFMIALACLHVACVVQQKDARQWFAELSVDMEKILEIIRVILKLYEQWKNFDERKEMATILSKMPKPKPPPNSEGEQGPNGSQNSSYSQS
# KIT T670E, sequence (P10721 26-976 T670E): as the sequence (P10721 26-976 D820E) above, with T645E, E795D counted along it
# MIP3a, sequence (P78556 27-96): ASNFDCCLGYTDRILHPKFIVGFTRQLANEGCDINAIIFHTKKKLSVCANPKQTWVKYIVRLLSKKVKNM
compound,measurement,setting,value
CCCCCc1cc2cc(O)cc(Oc3c(O)cc(O)cc3CCCCC)c2c(=O)o1 [BKT300],Inhibition of CD4+ T-cell migration towards MIP3a,MIP3a,completely inhibited
same,Effect on migration of THP-1 cells towards MCP-1,MCP-1; 10 μg/ml,no apparent effect
same,Inhibition of migration of THP-1 cells towards MCP-1,MCP-1; 50 μg/ml,strong inhibition
same,Concentration at which cell death of MV4-11 cells is induced (as low as; lowest tested),"[1]; BKT300 at 78% purity, 24 hours",≤ 2 µg/mL
same,"Degree of cell death of MV4-11 cells, 98% purity compared with 78% purity","[1]; BKT300 at 98% purity, 4.25 μg/ml",considerably greater degree of cell death
same,"Inducing cell death of MV4-11 cells, 98% purity compared with 78% purity","[1]; BKT300 at 98% purity, 2.125, 4.25, 8.5 μg/ml",significantly more effective
same,% Inhibition,CDC7/DBF4,53%
same,% Inhibition,CDK1/cyclin A2,45%
same,% Inhibition,CDK8/cyclin C,64%
same,% Inhibition,GRK4,63%
same,% Inhibition,GRK5,65%
same,% Inhibition,ICK,41%
same,% Inhibition,KIT D820E,42%
same,% Inhibition,KIT T670E,51%
same,% Inhibition,MAP4K1 (HPK1),45%
same,% Inhibition,MAP4K4 (HGK),40%
same,% Inhibition,MELK; BKT300 at 78% purity,41%
same,Affinity of BKT300 to the kinase,"MELK; based on the kinase screening assay summarized in Table 2, relatively low",few tens
same,% Inhibition,NUAK2,89%
same,% Inhibition,PAK7 (KIAA1264),40%
same,% Inhibition,TGFBR2,43%
same,% Inhibition,TTK,52%
